# Source: ChEMBL document CHEMBL4373673, “Druggability profile of stilbene-derived PPAR agonists: determination of physicochemical properties and PAMPA study” (Medchemcomm, 2019)
# Assays:
# [1] = Apparent solubility of compound in fasted state simulated intestinal fluid at pH 6.5 by spectrophotometric analysis; format: physicochemical
# [2] = Thermodynamic solubility of compound in buffer containing HCl/KCl with 1% v/v DMSO at pH 1.2 incubated for 24 hrs by spectrophotometric analysis; format: physicochemical; conditions: for Therm_solubility: buffer, pH 1.2, 24 h; for solubility thermodynamic at 24 h: HCl/KCl buffer, pH 1.2, read-out: Therm_solubility
# [3] = Kinetic solubility of compound in HDM-PAMPA with buffer containing 5% DMSO at pH 6.8 incubated for 5 hrs by spectrophotometric analysis; format: ADME; conditions: for solubility kinetic at 5 h: HDM-PAMPA buffer, pH 6.8, read-out: Kinetic_solubility
# [4] = Thermodynamic solubility of compound in buffer containing KH2PO4/Na2HPO4 with 1% v/v DMSO at pH 6.8 incubated for 24 hrs by spectrophotometric analysis; format: physicochemical; conditions: for solubility thermodynamic at 24 h: KH2PO4/Na2HPO4 buffer, pH 6.8, read-out: Therm_solubility; for Therm_solubility: buffer, pH 6.8, 24 h
# [5] = Octanol/water partition coefficient, logP of compound by RP-UHPLC analysis; format: physicochemical
# [6] = Thermodynamic solubility of compound in buffer containing KH2PO4/Na2HPO4 with 1% v/v DMSO at pH 7.4 incubated for 24 hrs by spectrophotometric analysis; format: physicochemical; conditions: for solubility thermodynamic at 24 h: KH2PO4/Na2HPO4 buffer, pH 7.4, read-out: Therm_solubility
# [7] = Kinetic solubility of compound in HDM-PAMPA with buffer containing 5% DMSO at pH 1.2 incubated for 5 hrs by spectrophotometric analysis; format: ADME; conditions: for Kinetic_solubility: pampa, pH 1.2, 5 h; for solubility kinetic at 5 h: HDM-PAMPA buffer, pH 1.2, read-out: Kinetic_solubility
# [8] = Apparent solubility of compound in fed state simulated intestinal fluid at pH 5 by spectrophotometric analysis; format: physicochemical
# [9] = Kinetic solubility of compound in HDM-PAMPA with buffer containing 5% DMSO at pH 7.4 incubated for 5 hrs by spectrophotometric analysis; format: ADME; conditions: read-out: Kinetic_solubility
# [10] = Solubility of the compound in water; format: physicochemical
# [11] = Ratio of compound kinetic solubility to gemfibrozil kinetic solubility in HDM-PAMPA with buffer containing 5% DMSO at pH 7.4 incubated for 5 hrs by spectrophotometric analysis
# [12] = Ratio of compound kinetic solubility to gemfibrozil kinetic solubility in HDM-PAMPA with buffer containing 5% DMSO at pH 6.8 incubated for 5 hrs by spectrophotometric analysis
# [13] = Ratio of compound kinetic solubility to clofibric acid kinetic solubility in HDM-PAMPA with buffer containing 5% DMSO at pH 7.4 incubated for 5 hrs by spectrophotometric analysis
# [14] = Ratio of compound kinetic solubility to clofibric acid kinetic solubility in HDM-PAMPA with buffer containing 5% DMSO at pH 6.8 incubated for 5 hrs by spectrophotometric analysis
SMILES,solubility [1],Therm_solubility [2],solubility kinetic at 5 h [3],solubility thermodynamic at 24 h [4],logP [5],solubility thermodynamic at 24 h [6],Kinetic_solubility [7],solubility [8],solubility kinetic at 5 h [9],"Kinetic_solubility ([3]; pampa, pH 6.8, 5 h)",Therm_solubility [4],solubility thermodynamic at 24 h [2],solubility kinetic at 5 h [7],solubility [10],"Therm_solubility ([6]; buffer, pH 7.4, 24 h)",Ratio [11],Ratio [12],Ratio [13],Ratio [14]
CC(C)(Oc1ccc(CCCOc2ccc(C(=O)/C=C/c3ccccc3)cc2)cc1)C(=O)O,19.6 µg/mL,Insoluble(Bld),68.4 µg/mL,16 µg/mL,6.55,17.5 µg/mL,Insoluble(Bld),17.8 µg/mL,67.6 µg/mL,,,,,,,,,,
COc1ccc(/C=C/c2ccc(OCCCC(C)(C)C(=O)O)cc2)cc1,7.13 µg/mL,Insoluble(Bld),,,6.08,1.65 µg/mL,Insoluble(Bld),6.23 µg/mL,7.32 µg/mL,Insoluble(Bld),Insoluble(Bld),,,,,,,,
CC(C)(Oc1ccc(Cl)cc1)C(=O)O [CLOFIBRIC ACID],> 50 µg/mL,,> 100 µg/mL,> 50 µg/mL,2.96,> 50 µg/mL,,> 50 µg/mL,> 100 µg/mL,,,> 50 µg/mL,> 100 µg/mL,,,,,,
CCN(C)C(=O)Oc1cccc([C@H](C)N(C)C)c1 [RIVASTIGMINE],,,,,,,,,,,,,,2040 µg/mL,,,,,
CC(C)(CCCOc1ccc(/C=C/c2ccccc2)cc1)C(=O)O,8.7 µg/mL,Insoluble(Bld),13.6 µg/mL,,6.95,,Insoluble(Bld),7.39 µg/mL,13 µg/mL,,Insoluble(Bld),,,,Insoluble(Bld),,,,
CC(C)(Oc1ccc(CCCOc2ccc(/C=C/c3ccccc3)cc2)cc1)C(=O)O,24.8 µg/mL,Insoluble(Bld),44.2 µg/mL,27.9 µg/mL,7.44,26.9 µg/mL,,13.8 µg/mL,43 µg/mL,,,,0.89 µg/mL,,,,,,
CC(C)(Oc1ccc(CCOc2ccc(/N=N/c3ccccc3)cc2)cc1)C(=O)O,63.5 µg/mL,Insoluble(Bld),300 µg/mL,13.9 µg/mL,6.63,25.5 µg/mL,Insoluble(Bld),> 100 µg/mL,296 µg/mL,,,,,,,2 to 3,2 to 3,2 to 3,2 to 3
Cc1ccc(C)c(OCCCC(C)(C)C(=O)O)c1 [GEMFIBROZIL],> 25 µg/mL,,> 120 µg/mL,> 25 µg/mL,4.9,> 25 µg/mL,,> 25 µg/mL,> 120 µg/mL,,,15.5 µg/mL,33.2 µg/mL,,,,,,
